Values joined by “and” are separate entries in the source; they are usually repeats but may differ in a detail not shown here. Equal values may be shown once.
CC(C)(C)C(O)/C(=C\c1ccc(Cl)cc1)n1cncn1 (stereo not drawn)
solubility (mole fraction)
Conditions | 278.15 K | 283.15 K | 288.15 K | 293.15 K | 298.15 K | 303.15 K | 308.15 K | 313.15 K | 318.15 K | 323.15 K
in ethyl acetate | 0.0106 | 0.0112 | 0.016 | 0.0167 | 0.0187 | 0.0201 | 0.0253 | 0.028 | 0.035 | 0.0536
in ethylene glycol | 0.000907 | 0.000983 | 0.00103 | 0.00118 | 0.00128 | 0.00166 | 0.0018 | 0.00202 | 0.00248 | 0.0025
in isobutanol | 0.0157 | 0.0177 | 0.0185 | 0.0197 | 0.0225 | 0.0257 | 0.0261 | 0.0365 | 0.0425 | 0.0566
in isobutyl acetate | 0.00727 | 0.0102 | 0.0116 | 0.0136 | 0.0159 | 0.0199 | 0.0219 | 0.0263 | 0.0335 | 0.0423
in isopropanol | 0.0112 | 0.0122 | 0.0141 | 0.0157 | 0.0189 | 0.0248 | 0.0268 | 0.0326 | 0.038 | 0.047
in methyl acetate | 0.0084 | 0.00938 | 0.0116 | 0.0137 | 0.0151 | 0.0184 | 0.0214 | 0.0236 | 0.0318 | 0.0383
in n-butanol | 0.015 | 0.0171 | 0.0196 | 0.0221 | 0.0249 | 0.0309 | 0.0355 | 0.0406 | 0.0475 | 0.0623
in n-butyl acetate | 0.0118 | 0.0131 | 0.0153 | 0.0182 | 0.0204 | 0.0247 | 0.0291 | 0.0332 | 0.0364 | 0.0527
in n-octanol | 0.0159 | 0.0177 | 0.02 | 0.0225 | 0.0238 | 0.0255 | 0.0287 | 0.0369 | 0.044 | 0.0511
in n-propanol | 0.0143 | 0.0163 | 0.0196 | 0.0218 | 0.0231 | 0.0263 | 0.0273 | 0.0332 | 0.0441 | 0.0497
in n-propyl acetate | 0.0114 | 0.0123 | 0.0147 | 0.0169 | 0.0269 | 0.0277 | 0.0362 | 0.037 | 0.052 | 0.0556
in propylene glycol | 0.00332 | 0.00359 | 0.00423 | 0.00483 | 0.00737 | 0.00749 | 0.00874 | 0.0101 | 0.0139 | 0.0174
in water | 2.2e-06 and 3.2e-06 | 2.3e-06 and 3.6e-06 | 2.4e-06 | 2.6e-06 | 2.7e-06 | 2.8e-06 | 3e-06 | – | – | 4.2e-06
